Experiments:
S. sanguis OMZ 9 = details: for Inhibitory effect on adhesion to plastic tubes (in words): preliminary tests; for Inhibition (%) of bacterial adhesion to plastic tubes: 1 mg/ml, 4 h
A. viscosus OMZ 105 [1] = details: for Inhibitory effect on adhesion to plastic tubes (in words): preliminary tests; for Inhibition (%) of bacterial adhesion to plastic tubes: 1 mg/ml, 4 h
S. mutans OMZ 176 = experiment: Inhibition of bacterial adhesion to plastic (polypropylene) tubes; details: 1 mg/ml, 4 h
A. viscosus OMZ 105 [2] = system: A. viscosus OMZ 105
A. naeslundii ATCC 12104 = details: A. naeslundii ATCC 12104, no control of growth phase; desialylated human erythrocytes (A+); none = no inhibition up to 20 mg/ml

Molecule | Inhibitory effect on adhesion to plastic tubes (in words) (S. sanguis OMZ 9) | Inhibitory effect on adhesion to plastic tubes (in words) (A. viscosus OMZ 105 [1]) | Inhibition (%) of bacterial adhesion to plastic tubes (S. sanguis OMZ 9) | Inhibition (%) of bacterial adhesion to plastic tubes (S. mutans OMZ 176) | Inhibition (%) of bacterial adhesion to plastic tubes (A. viscosus OMZ 105 [1]) | other results
NCC(=O)O [glycine] | nonactivity | nonactivity |  |  |  | 
COC1OC(CO)C(O)C(O)C1O (stereo not drawn) [Methyl α annoside] |  |  | 11% | 3% | 10% | 
Polylysine |  |  | 12% | 30% | 46% | 
O=C[C@H](O)[C@@H](O)[C@H](O)[C@H](O)CO [glucose] | nonactivity | nonactivity |  |  |  | 
OC[C@H]1O[C@@H](O[C@H]2[C@H](O)[C@@H](O)C(O)O[C@@H]2CO)[C@H](O)[C@@H](O)[C@H]1O (some centres unmarked) [Lactose] |  |  |  |  |  | Minimum concentration resulting in complete inhibition of hemagglutination (A. viscosus OMZ 105 [2]; A. viscosus OMZ 105, no control of growth phase, desialylated human erythrocytes (A+), none = no inhibition up to 20 mg/ml): none; Concentration expressed in galactoside equivalents/ml (minimum concentration resulting in complete inhibition of hemagglutination) (A. viscosus OMZ 105 [2]; A. viscosus OMZ harvested in the exponential phase): > 10 mg/mL; Concentration expressed in dry weight/ml (minimum concentration resulting in complete inhibition of hemagglutination) (A. viscosus OMZ 105 [2]; A. viscosus OMZ harvested in the exponential phase, none = no inhibition up to 20 mg/ml): none; Minimum concentration resulting in complete inhibition of hemagglutination (A. naeslundii ATCC 12104): none
Polyglutamic acid |  |  | 6% | 20% | 22% | 

Source: patent US4994441A, “Dental anti-plaque and anti-caries agent” (priority 1987, dated 1991)
